Test results taken from US20240238281A1, “PIPERAZINE DERIVATIVES AND APPLICATION THEREOF” (priority 2021, published 2024).
pEC50: −log10 of the molar value. Where a name gives a salt, the structure may show the parent alone. Read-outs that look alike come from different tables or passages of the source.

Experiments:
Format in all cases: cell-based
MC1R = target: T1, MC1R (Homo sapiens, UniProt Q01726); assay: In vitro activity of MCR receptors, intracellular cAMP signal (HEK293T/MCR cell line), MC1R
T1 construct: expressed in transfected cells
Procedure: (§1) Test purpose: to evaluate the agonistic effect of the compound on MCRs by detecting intracellular cAMP signal changes.
(§2) Cells were resuspended with 1×PBS+500 μM IBMX. 10 μL of the cell suspension was added into a 384-well plate to be tested, and the cell concentration was adjusted to 1×10^4 cells per well for later use. A pre-prepared solution of the compound to be tested was added, and dimethyl sulfoxide of the same volume was added to blank control wells. The test plate was centrifuged at 300 rpm for 1 minute, incubated at 37° C. for 30 minutes, and added with 5 μL of cAMP-d2 and 5 μL of a CAMP-cry antibody detection reagent. The test plate was centrifuged at 300 rpm for 1 minute, and incubated at room temperature for 60 minutes.

MC5R = target: T2, MC5R (Homo sapiens, UniProt P33032); assay: In vitro activity of MCR receptors, intracellular cAMP signal (HEK293T/MCR cell line), MC5R
T2 construct: expressed in transfected cells
Procedure: as §1
as §2, with “minutes. The test plate was placed in the Envision multifunctional microplate reader for reading, with a detection wavelength of 665/615 nm.” for “minutes.”

MC4R = target: T3, MC4R (Homo sapiens, UniProt P32245); assay: In vitro activity of MCR receptors, intracellular cAMP signal (HEK293T/MCR cell line), MC4R
T3 construct: expressed in transfected cells
Procedure: as §1
as §2, with “minutes. The test plate was placed in the Envision multifunctional microplate reader for reading, with a detection wavelength of 665/615 nm.” for “minutes.”

MC3R = target: T4, MC3R (Homo sapiens, UniProt P41968); assay: In vitro activity of MCR receptors, intracellular cAMP signal (HEK293T/MCR cell line), MC3R
T4 construct: expressed in transfected cells
Procedure: as §1, §2

[1] = cAMP, HEK293T/MCR cell line, read-out: MC1R EC50
[2] = cAMP, HEK293T/MCR cell line, read-out: MC5R EC50
[3] = cAMP, HEK293T/MCR cell line, read-out: MC4R EC50
[4] = cAMP, HEK293T/MCR cell line, read-out: MC3R EC50

T3 sequence (P32245 whole entry): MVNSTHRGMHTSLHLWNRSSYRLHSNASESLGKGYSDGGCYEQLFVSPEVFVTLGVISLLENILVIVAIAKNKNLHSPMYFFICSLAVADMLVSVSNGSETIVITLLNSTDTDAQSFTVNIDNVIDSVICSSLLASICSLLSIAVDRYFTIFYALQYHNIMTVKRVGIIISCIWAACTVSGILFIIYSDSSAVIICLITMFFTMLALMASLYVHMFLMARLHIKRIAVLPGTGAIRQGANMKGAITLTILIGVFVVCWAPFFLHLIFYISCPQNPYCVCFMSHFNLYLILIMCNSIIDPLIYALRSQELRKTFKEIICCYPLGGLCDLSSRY
T2 sequence (P33032 whole entry): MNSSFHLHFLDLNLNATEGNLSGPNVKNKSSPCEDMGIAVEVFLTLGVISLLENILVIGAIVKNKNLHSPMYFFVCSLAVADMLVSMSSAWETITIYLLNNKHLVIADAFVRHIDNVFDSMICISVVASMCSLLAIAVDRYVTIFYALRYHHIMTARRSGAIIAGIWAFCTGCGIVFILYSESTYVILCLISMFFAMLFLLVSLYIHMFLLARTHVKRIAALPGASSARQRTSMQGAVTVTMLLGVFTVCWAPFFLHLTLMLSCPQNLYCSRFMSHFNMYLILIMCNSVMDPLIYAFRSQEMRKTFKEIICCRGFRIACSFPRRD
T4 sequence (P41968 whole entry): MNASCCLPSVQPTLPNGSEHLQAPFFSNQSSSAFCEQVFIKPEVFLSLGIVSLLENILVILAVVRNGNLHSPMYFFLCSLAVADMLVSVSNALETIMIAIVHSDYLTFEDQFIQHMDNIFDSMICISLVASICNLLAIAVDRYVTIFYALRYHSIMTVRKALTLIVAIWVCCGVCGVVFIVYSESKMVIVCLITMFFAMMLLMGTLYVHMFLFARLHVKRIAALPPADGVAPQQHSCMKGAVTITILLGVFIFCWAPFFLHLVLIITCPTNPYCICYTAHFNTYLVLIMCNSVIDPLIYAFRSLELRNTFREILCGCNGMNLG
T1 sequence (Q01726 whole entry): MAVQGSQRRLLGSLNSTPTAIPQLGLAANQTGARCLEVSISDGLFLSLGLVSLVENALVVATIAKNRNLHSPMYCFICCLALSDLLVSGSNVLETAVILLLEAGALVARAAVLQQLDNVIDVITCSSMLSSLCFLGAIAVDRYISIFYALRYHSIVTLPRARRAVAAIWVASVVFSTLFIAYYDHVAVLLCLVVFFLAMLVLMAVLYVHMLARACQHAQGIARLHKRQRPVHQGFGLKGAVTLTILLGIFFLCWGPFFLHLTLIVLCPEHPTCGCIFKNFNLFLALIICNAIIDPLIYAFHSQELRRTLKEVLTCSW

Row | pEC50 (MC1R; [1]) | pEC50 (MC5R; [2]) | pEC50 (MC4R; [3]) | pEC50 (MC3R) | SMILES | pEC50 (MC1R) | pEC50 (MC5R) | pEC50 (MC4R) | pEC50 (MC3R; [4])
1 | 5.70 | < 5.00 | 7.59 | 5.51 | C[C@@H]1CN(C(=O)C2CN(C3CCOC3)CC2c2ccc(F)cc2F)C[C@H](C)N1c1ccc(F)cc1 (single isomer, unassigned) [Compound 20a] |  |  |  | 
2 | 6.31 | < 5.00 | 8.28 | 6.57 | C[C@@H]1CN(C(=O)C2CN(C3CCOC(C)(C)C3)CC2c2ccc(F)cc2F)C[C@H](C)N1c1ccc(F)cc1 (single isomer, unassigned) [Compound 21b] |  |  |  | 
3 |  | < 5.00 | 8.52 | 6.24 | C[C@@H]1CN(C(=O)[C@@H]2CN(C3CCOCC3)C[C@H]2c2ccc(F)cc2F)C[C@H](C)N1c1ccc(Cl)cc1 [Compound 15] | 6.24 |  |  | 
4 | 6.97 | < 5.00 | 8.72 | 6.16 | C[C@@H]1CN(C(=O)C2CN([C@H]3CCO[C@@H](C)C3)C[C@H]2c2ccc(F)cc2F)C[C@H](C)N1c1ccc(F)cc1 (stereo partly drawn) [Compound 22d] |  |  |  | 
5 | 6.10 | < 5.00 | 10.52 | 6.58 | CC1CC(N2CC(C(=O)N3C[C@@H](C)N(c4ccc(F)cc4)[C@@H](C)C3)C(c3ccc(F)cc3F)C2)CCO1 (single isomer, unassigned) [Compound 22a] |  |  |  | 
6 | 7.26 | 5.09 | 8.17 | 5.96 | C[C@@H]1CN(C(=O)[C@@H]2CN(C3CCC3)C[C@H]2c2ccc(F)cc2F)C[C@H](C)N1c1ccc(F)cc1 [Compound 17] |  |  |  | 
7 | 7.54 | 5.86 | 8.40 | 6.70 | C[C@@H]1CN(C(=O)[C@@H]2CN(C3CCCCC3)C[C@H]2c2ccc(F)cc2F)C[C@H](C)N1c1ccc(F)cc1 [Compound 18] |  |  |  | 
8 | 6.24 | 6.04 | 8.00 | 6.17 | C[C@@H]1CN(C(=O)[C@@H]2CN(C3CCOCC3)C[C@H]2c2ccc(F)cc2F)C[C@H](C)N1c1ccc(F)c(F)c1 [Compound 14] |  |  |  | 

The next lines start with the compound.

Row | SMILES | pEC50 (MC1R; [1]) | pEC50 (MC5R; [2]) | pEC50 (MC4R; [3]) | pEC50 (MC3R) | pEC50 (MC1R) | pEC50 (MC5R) | pEC50 (MC4R) | pEC50 (MC3R; [4])
9 | C[C@@H]1CN(C(=O)C2CN(C(C)(C)C)CC2c2ccc(F)cc2F)C[C@H](C)N1c1ccc(F)cc1 (single isomer, unassigned) [Compound 3] |  |  |  | 5.62 | 6.52 | < 5.00 | 7.52 | 
10 | C[C@@H]1CN(C(=O)C2CN(C(C)(C)C)CC2c2ccc(F)cc2F)C[C@H](C)N1c1ccc(C(F)(F)F)cc1 (single isomer, unassigned) [Compound 5] |  |  |  |  | 6.05 | < 5.00 | 7.46 | 5.46
11 | C[C@@H]1CN(C(=O)C2CN(c3ccc(C#N)cn3)CC2c2ccc(F)cc2F)C[C@H](C)N1c1ccc(F)cc1 (single isomer, unassigned) [Compound 12] |  |  |  |  | 6.63 | 6.13 | 9.70 | 8.30
12 | C[C@@H]1CN(C(=O)C2CN(c3cccnn3)CC2c2ccc(F)cc2F)C[C@H](C)N1c1ccc(F)cc1 (single isomer, unassigned) [Compound 11] |  |  |  |  | 7.09 | 5.67 | 9.40 | 7.59
13 | CCC(C)(C)N1CC(C(=O)N2C[C@@H](C)N(c3ccc(F)cc3)[C@@H](C)C2)[C@H](c2ccc(F)cc2F)C1 (stereo partly drawn) [Compound 23] | 7.24 | 5.71 | 8.40 | 6.50 |  |  |  | 
14 | C[C@@H]1CN(C(=O)[C@@H]2CN(C(C)(C)C)C[C@H]2c2ccc(F)cc2F)C[C@H](C)N1c1ccccn1 [Compound 1] |  |  |  |  | 5.63 | < 5.00 | 6.83 | < 5.00
15 | C[C@@H]1CN(C(=O)C2CN(c3ccccc3)CC2c2ccc(F)cc2F)C[C@H](C)N1c1ccc(F)cc1 (single isomer, unassigned) [Compound 13] |  |  |  |  | < 5.00 | < 5.00 | 7.30 | 5.48
16 | C[C@@H]1CN(C(=O)[C@@H]2CN(C(C)(C)C)C[C@H]2c2ccc(F)cc2F)C[C@H](C)N1c1ccccc1 [Hydrochloride salt of compound 6] | 7.10 | 5.94 | 7.62 | 5.69 |  |  |  | 
17 | C[C@@H]1CN(C(=O)C2CN(C(C)(C)C)CC2c2ccc(Cl)cc2)C[C@H](C)N1c1ccc(F)cc1 (single isomer, unassigned) [Compound 9] |  |  |  |  | 7.35 | 6.40 | 7.80 | 5.75
18 | C[C@@H]1CN(C(=O)C2CN(C3CCOCC3)CC2c2ccc(Cl)cc2)C[C@H](C)N1c1ccc(F)cc1 (single isomer, unassigned) [Compound 16] |  |  |  |  | 6.78 | 5.93 | 8.22 | 6.60
